The test system of the assay is 3T3-L1 cells. In words: Adipocyte differentiation (fat accumulation), Oil Red O staining. It is filed as cell-based, mouse. As for the experimental part: 3T3-L1 cells, which are mouse-derived preadipocytes, were purchased from Korean Cell Line Bank. The 3T3-L1 cells were cultured using an DMEM medium (Welgene) supplemented with 10% bovine calf serum (BCF), 100 units/mL penicillin and 100 μg/mL streptomycin (complete DMEM medium) in a humidified CO2 incubator (5% CO2/95% air) at 37° C. When the cells filled about 80% of the culture dish, the cell monolayer was washed with phosphate-buffered saline (PBS, pH 7.4) and the cells were detached by adding trypsin-2.65 mM EDTA. Then, the cells were subcultured while replacing the medium every other day.
3T3-L1 cells were seeded onto a 24-well plate at 1×10^5 cells/well. When the cells reached confluence, differentiation into adipocytes was induced by culturing the cells while replacing the medium sequentially with three differentiation media (DM). That is to say, differentiation was induced for 2 days by replacing the medium with a differentiation medium wherein DMI (1 μM dexamethasone, 0.5 mM 3-isobutyl-1-methylxanthine (IBMX) and 5 μg/mL insulin) was added to a DMEM medium containing 10% FBS. Then, differentiation was induced again for 2 days by replacing the medium with a fresh differentiation medium wherein 5 μg/mL insulin was added to a DMEM medium containing 10% FBS. Then, differentiation into adipocytes was induced by maintaining the cells for 2 days in a DMEM medium containing 10% FBS. […]

SMILES strings stand for the structures. “Also recorded” adds a separate entry of the source.

In the case of `OCC1(O)CO[C@@H](Oc2cc(O)c3c(c2)OC(c2ccc(O)c(O)c2)[C@@H](O)C3)C1O` (stereo partly drawn) [catechin 7-O-β-D-apiofuranoside], for the setting “3T3-L1, concentration dependence”, the “adipocyte differentiation-inhibiting ability (in words)” value is “statistically significant adipocyte differentiation-inhibiting ability in a concentration-dependent manner; also recorded: inhibits the differentiation of adipocytes in a concentration-dependent manner with statistical significance”. Besides, the inhibition at 20 µg/mL (Mus musculus, 20 μg/mL (highest concentration tested), 3T3-L1, Oil Red O, read-out: adipocyte differentiation-inhibiting ability) was not below 40%.

The record behind these values is US20240382544A1, “COMPOSITION FOR ANTI-OBESITY AND PREVENTING OR TREATING MUSCLE LOSS, CONTAINING CATECHIN GLYCOSIDE EXTRACT DERIVED FROM PLANT IN GENUS ULMUS AS ACTIVE INGREDIENT” (DR. OREGONIN INC., priority 2022, published 2024).
